Source: patent publication US6982246B1, “Cytomodulating peptide for inhibiting lymphocyte activity” (SangStat Medical Corporation, priority 1995, dated 2006)
“Also recorded” adds a separate entry of the source. Ends that are not written are not given here. * marks the point of attachment. Biotin = O=C1N[C@H]2[C@H](CS[C@H]2CCCCC(=O)*)N1

Assays:
[1] = system: anti-CD3 stimulation of CBA spleen cells; experiment: Anti-CD3 stimulation ([3H]-TdR incorporation); format: cell-based, mouse; conditions: for inhibition of anti-CD3 stimulation: result in words
Protocol: Anti-CD3 Stimulation and Mixed Lymphocyte Culture. Spleen cells isolated from CBA mice were stimulated (2×10^5/well) with anti-CD3 monoclonal antibody (Pharmingen, San Diego) at a final concentration of 0.1 to 1 μg/ml in 96-well, round-bottom microculture plates (Nunc, Denmark). Peptides at various concentrations were added at the beginning of the culture. Cells were incubated for a period of 3 days at 37° C., 5% CO2. Twenty-four hours before harvesting 1 μCi[^3H]-TdR (Amersham, Arlington Heights, Ill.) was added to individual wells. Cells were then harvested using a Filtermate 196 Harvester (Packard, Downers Grove, Ill.) and the degree of thymidine incorporation was measured using a TopCount Microplate Scintillation Counter (Packard). For MLR, CBA spleen cells were used as responders and B6 spleen cells as stimulators. B6 spleen cells were pre- treated with mitomycin-C (Calbiochem, La Jolla, Calif.) at 0.5 mg/ml for 20 min at 36° C. Cells were then washed three times to remove excess mitomycin-C. CBA spleen cells (2×10^5/well) were cultured with an equal number of mitomycin C-treated B6 cells in serum-free Aim V medium for periods of 3 to 6 days. One microcurie of [^3H]-TdR was added to the culture 24 hour before cell harvesting and the degree of thymidine incorporation was quantified as described above.

[2] = system: CTL activity (CBA to B6 effector cells, EL4 target cells); experiment: Cytotoxic T cell activity (51Cr release); format: cell-based, mouse; conditions: for inhibition of CTL activity: result in words
Protocol: Cytotoxic T Cell Activity. To assay the effect of peptides on cytotoxic T cell activity, CBA to B6 effector cells were prepared following a 6-day culture of 4×10^6 CBA spleen cells with 5×10^6 mitomycin-treated B6 spleen cells in wells of a 24 well plate (Nuncion Delta, Nunc, Denmark) in RPMI-1640 with 10% FBS. Effector cells were then harvested and washed. EL4 (H-2^b), a mouse lymphoma induced in C57BL/6N was used as target cells. Cultured EL4 cells were maintained and sub-cultured once every three days […] Effector (E) and target (T) cells were then added into V-shaped tissue culture plates (Nunc, Denmark) at E:T ratios of 3:1, 10:1, 30:1, 100:1, respectively. Peptides were diluted to the working concentrations with R-10 medium and added at the beginning of the 4-hour incubation period. For the determination of maximal release, 1% Triton X-100 was added to separate wells. Plates were then centrifuged for 2 min to increase cellular contact before the 4-hour incubation period. After incubation, 75 μl supernatant from each well was collected and the amount of ^51Cr was counted using a TopCount Scintillation Counter. The degree of cell lysis was calculated using the formula below: [formula]

[3] = system: NK cell activity (killing of YAC-1 cells by CBA spleen cells); experiment: NK cell activity (51Cr release); format: cell-based, mouse; conditions: YAC-1 targets, freshly isolated CBA spleen cells
Protocol: NK Cell Activity. YAC-1, a mouse lymphoma which was induced by inoculation of Moloney leukemia virus into a newborn A/Sn mouse was used as the NK cell target (ATCC TIB 160). Four thousand sodium chromate labeled YAC-1 cells were cultured with different concentrations of freshly isolated CBA spleen cells (effector to target ratios: 62.5:1, 125:1, 250:1, 500:1) in V-shaped bottom plates with RPMI-1640 containing 10% FBS for 4 h at 37° C., 5% CO2. The degree of cell lysis was quantified by the release of ^51Cr into the supernatants. After incubation, plates were centrifuged and 75 μl of supernatant was collected. The degree of cell lysis was measured using a TopCount Scintillation Counter. The degree of cell lysis was calculated using the formula below: [formula]

[4] = system: human peripheral blood lymphocytes; experiment: Staining of PBLs with biotinylated peptide panel; format: binding; conditions: for binding to PBLs: 50 μg/ml biotinylated peptide; for binding on resting lymphocytes: majority of binding on macrophage/polymorphonuclear leukocytes population
Excerpt: (§1) In the next study, human peripheral blood lymphocytes were isolated and stained with the biotinylated peptide panel. […] Using human and murine cell lines, a spectrum of binding affinity was observed.

Jurkat cell line E6-1 = experiment: Binding of biotinylated peptide to cell lines; conditions: among human and murine cell lines
Excerpt: as §1

[5] = system: anti-H2b CTL effector population; experiment: Binding of biotinylated peptide to CTL effectors; parameters: species or system mouse; conditions: cells activated (IL-2 receptor expression)
[6] = system: B6 hearts in CBA recipients; experiment: Heterotopic heart transplantation; format: in vivo, mouse; conditions: 10 mg/kg/day, day 0 to day 10; untreated MST 7.5+/−1.1; p=0.0007
Protocol: The in vivo immunosuppressive activity of the peptides was evaluated in heterotopic heart transplantation in the model described by Ono and Lindsey, (J Thorac Cardiovasc Surg 1969, 7:225). CBA recipients of B6 hearts were treated 10 mg/kg/day of p15 from day 0 to day 10 after transplantation. Untreated recipients rejected the allografts between day 6 and 10 (MST=7.5+/−1.1 days). Treatment of recipients with p15 lead to a significant increase of graft survival (MST=14.4+/−1.5 days, p vs control=0.0007; Mann-Whitney Test).

| Substance | inhibition of anti-CD3 stimulation at 5 μg/ml [1] | inhibition of anti-CD3 stimulation at 50 μg/ml [1] | inhibition of anti-CD3 stimulation [1] | inhibition of CTL activity [2] | other results |
| --- | --- | --- | --- | --- | --- |
| 3: Bt-SGSG-RENLRTALRY (Biotin-SGSGRENLRTALRY-OH) [compound 3] | substantially less inhibition | substantially complete inhibition | inhibit the anti-CD3 stimulation in a dose dependent manner |  |  |
| 4: Bt-SGSG-RVNLRTALRY [compound 4] |  |  |  | inhibitory activity substantially greater than contol |  |
| 16: Bi-SGSG-LRIALRYYWD [compound 16] | substantially less inhibition | substantially complete inhibition | inhibit the anti-CD3 stimulation in a dose dependent manner | inhibitory activity substantially greater than contol |  |
| 17: Bt-SGSG-IALRYYWDS [compound 17] | substantially less inhibition | substantially complete inhibition | inhibit the anti-CD3 stimulation in a dose dependent manner |  |  |
| 19: Bt-SGSG-LRYYWDSEA [compound 19] |  |  |  | inhibitory activity substantially greater than contol |  |
| 20: Bt-SGSG-RIALRAAA [compound 20] |  |  |  | inhibitory activity substantially greater than contol |  |
| 23: Bt-SGSG-NLRIALRY [compound 23] |  |  |  | inhibitory activity substantially greater than contol |  |
| 27: Bt-SGSG-QTDRENLRIA [compound 27] | significant levels of inhibition |  |  | inhibitory activity substantially greater than contol |  |
| 34: Bt-SGSG-REALRIALRY [compound 34] |  |  |  | inhibitory activity substantially greater than contol |  |
| 40: Bt-SGSG-RENLRIALRA [compound 40] | substantially less inhibition | substantially complete inhibition | inhibit the anti-CD3 stimulation in a dose dependent manner |  |  |
| 41: Bt-SGSG-RVDLRTLRGY [compound 41] | substantially less inhibition | substantially complete inhibition | inhibit the anti-CD3 stimulation in a dose dependent manner |  |  |
| 42: Bt-SGSG-RVSLRNLRGY [compound 42] | significant levels of inhibition | substantially complete inhibition | inhibit the anti-CD3 stimulation in a dose dependent manner |  |  |
| 43: Bt-SGSG-RVNLRTLRRY; marked E in the table [compound 43] | significant levels of inhibition | substantially complete inhibition | inhibit the anti-CD3 stimulation in a dose dependent manner |  |  |
| Bt-SGSG-NLRIALRYYW; positions 77–85 terminating with tryptophan (Biotin-SGSGNLRIALRYYW-OH) [peptide 15] | substantially less inhibition | substantially complete inhibition | inhibit the anti-CD3 stimulation in a dose dependent manner | inhibited CTL activity; also recorded: highest degree of inhibition | CTL inhibition across different MHC combinations ([2]; H2k>H2b, H2d>H2b, H2k>H2d strain combinations): greater activity than B2702 monomer; also recorded: non-MHC restricted; percentage lysis in presence of peptide ([2]; lysis without peptide 42%): 7%; inhibition of NK cell killing [3]: able to inhibit the killing of YAC-1; binding to PBLs [4]: bound to the PBLs; binding on resting lymphocytes [4]: little or no binding on resting lymphocytes; degree of binding to cell line (Jurkat cell line E6-1): highest degree of binding; binding to activated CTL effector cells [5]: binding of peptide 15 was observed; graft survival MST [6]: 14.4 ± 1.5 days |
| Bue-1: 2702 MAP; no sequence printed in the table (SGSGRENLRIALRY; not fully specified; also: MAP construct) | substantially less inhibition | substantially complete inhibition | inhibit the anti-CD3 stimulation in a dose dependent manner |  |  |
| Bue-3: ENLRIALR | substantially less inhibition | substantially complete inhibition | inhibit the anti-CD3 stimulation in a dose dependent manner |  |  |
| Bue-4: ENLRIAL | substantially less inhibition | substantially complete inhibition | inhibit the anti-CD3 stimulation in a dose dependent manner |  |  |
| Bue-5: NLRIAL | significant levels of inhibition | substantially complete inhibition | inhibit the anti-CD3 stimulation in a dose dependent manner |  |  |
| Woo-2: Bt-SGSG-RENLRIALRY (Biotin-SGSGRENLRIALRY-OH) | substantially less inhibition | substantially complete inhibition | inhibit the anti-CD3 stimulation in a dose dependent manner |  |  |
| peptide 2: Bi-SGSG-RVNLRIALRY (Biotin-SGSGRVNLRIALRY-OH) | substantially less inhibition | substantially complete inhibition | inhibit the anti-CD3 stimulation in a dose dependent manner | inhibited CTL activity | binding to PBLs [4]: bound to the PBLs; binding on resting lymphocytes [4]: little or no binding on resting lymphocytes |
